From ChEMBL document CHEMBL1157129, “Synthesis and antiprotozoal activity of 2,5-bis[amidinoaryl]thiazoles” (Bioorg Med Chem, 2010)
Activity calls are given as the source filed them. The calls are words filed in the database; no cut-off is given here.

How the values were obtained:
[1] = system: Trypanosoma brucei rhodesiense; experiment: Antitrypanosomal activity against Trypanosoma brucei rhodesiense STIB900 in infected mouse model assessed as host survival time at 5 mg/kg, ip for 4 days; format: functional; conditions: route intraperitoneal
[2] = system: Trypanosoma brucei rhodesiense; experiment: Antitrypanosomal activity against Trypanosoma brucei rhodesiense STIB900 in infected mouse model assessed as host survival time at 25 mg/kg, po for 4 days; format: functional
[3] = system: Trypanosoma brucei rhodesiense; experiment: Antitrypanosomal activity against Trypanosoma brucei rhodesiense STIB900 in infected mouse model assessed as parasitemia cure in host at 5 mg/kg, ip for 4 days; format: functional, organism-based; design: dose 5 mg/kg
[4] = system: Trypanosoma brucei rhodesiense; experiment: Antitrypanosomal activity against Trypanosoma brucei rhodesiense STIB900 in infected mouse model assessed as parasitemia cure in host at 25 mg/kg, po for 4 days; format: functional, organism-based; design: dose 25 mg/kg
[5] = system: Trypanosoma brucei rhodesiense; experiment: Antitrypanosomal activity against Trypanosoma brucei rhodesiense STIB900; format: functional, organism-based
L6 = experiment: Cytotoxicity against rat L6 cells; format: cell-based
Plasmodium falciparum = experiment: Antiplasmodial activity against Plasmodium falciparum K1; format: functional, organism-based

Structure (SMILES) | Survival [1] | Survival [2] | Activity [3] | Activity [4] | IC50 [5] | IC50 (L6) | IC50 (Plasmodium falciparum)
N=C(N)c1ccc(OCCCCCOc2ccc(C(=N)N)cc2)cc1 [PENTAMIDINE] | 45 days | – | – | – | – | – | –
Cl.Cl.N/C(=N\O)c1ccc(-c2cnc(-c3ccc(/C(N)=N\O)nc3)s2)cn1 | – | 24 days | – | – | – | – | –
CO/N=C(\N)c1ccc(-c2ccc(-c3ccc(/C(N)=N/OC)cn3)o2)cc1 | >60 days | >60 days | Active | – | – | – | –
CO/N=C(\N)c1ccc(-c2cnc(-c3ccc(/C(N)=N\OC)cn3)s2)nc1.Cl.Cl | – | 9 days | – | inactive | – | – | –
Cl.Cl.N/C(=N\O)c1ccc(-c2cnc(-c3ccc(/C(N)=N/O)nc3)s2)cc1 | – | 37.5 days | – | inactive | – | – | –
Cl.Cl.N=C(N)c1ccc(-c2cnc(-c3ccc(C(=N)N)nc3)s2)cc1 | 44.5 days | – | inactive | – | 4 nM | 1800 nM | 2.5 nM
Cl.Cl.N/C(=N\O)c1ccc(-c2cnc(-c3ccc(/C(N)=N\O)cn3)s2)cc1 | – | 24 days | – | inactive | – | – | –
Cl.Cl.N=C(N)c1ccc(-c2ncc(-c3ccc(C(=N)N)nc3)s2)nc1 | 29.25 days | – | inactive | – | 38 nM | 37400 nM | 13 nM
N=C(N)c1ccc(-c2ccc(-c3ccc(C(=N)N)cc3)o2)cc1 [FURAMIDINE] | >46 days | – | – | – | – | 6500 nM | –
CO/N=C(\N)c1ccc(-c2cnc(-c3ccc(/C(N)=N/OC)nc3)s2)cc1.Cl | – | 42.8 days | – | inactive | – | – | –
Cl.Cl.N=C(N)c1ccc(-c2cnc(-c3ccc(C(=N)N)nc3)s2)cn1 | 50.5 days | – | inactive | – | 6 nM | 1400 nM | 1.1 nM
Cl.Cl.N=C(N)c1ccc(-c2cnc(-c3ccc(C(=N)N)cn3)s2)nc1 | 21.5 days | – | inactive | – | 176 nM | > 195000 nM | 24.6 nM
Cl.Cl.N/C(=N/O)c1ccc(-c2cnc(-c3ccc(/C(N)=N\O)cc3)s2)cc1 | – | 35 days | – | inactive | – | – | –
CO/N=C(\N)c1ccc(-c2cnc(-c3ccc(/C(N)=N\OC)nc3)s2)cn1.Cl.Cl | – | 9 days | – | – | – | – | –
Cl.Cl.N=C(N)c1ccc(-c2cnc(-c3ccc(C(=N)N)cc3)s2)cc1 | >44.5 days | – | – | – | 4 nM | – | 2 nM
CO/N=C(\N)c1ccc(-c2cnc(-c3ccc(/C(N)=N\OC)cn3)s2)cc1.Cl.Cl | – | 35 days | – | inactive | – | – | –
N=C(N)c1ccc(-c2ccc(-c3ccc(C(=N)N)cn3)o2)cc1 | >54.5 days | – | – | – | – | – | –
Cl.Cl.N/C(=N\O)c1ccc(-c2cnc(-c3ccc(/C(N)=N\O)cn3)s2)nc1 | – | 9 days | – | inactive | – | – | –
Cl.Cl.N=C(N)c1ccc(-c2ncc(-c3ccc(C(=N)N)nc3)s2)cc1 | > 36 days | – | inactive | – | 6 nM | 40200 nM | 2.4 nM
N=C(N)c1ccc(-c2ccc(-c3ccc(C(=N)N)cc3)s2)cc1 | >48.75 days | – | – | – | 3 nM | – | 13.8 nM
CO/N=C(/N)c1ccc(-c2cnc(-c3ccc(/C(N)=N\OC)cc3)s2)cc1.Cl.Cl | – | 41 days | – | inactive | – | – | –
Cl.Cl.N/C(=N\O)c1ccc(-c2ncc(-c3ccc(/C(N)=N\O)nc3)s2)cc1 | – | 36.8 days | – | inactive | – | – | –
Cl.Cl.N=C(N)c1ccc(-c2cnc(-c3ccc(C(=N)N)cn3)s2)cc1 | 30.25 days | – | inactive | – | 16 nM | 102000 nM | 12.5 nM
CONC(=N)c1ccc(-c2ccc(-c3ccc(C(=N)NOC)cc3)o2)cc1 [PAFURAMIDINE] | 30 days | >60 days | inactive | Active | – | – | –
